How the values were obtained:
[1] = system: C57BL/6N mice with angiotensin II-induced diastolic heart failure; assay: Echocardiography in therapeutic murine model (angiotensin II for eight weeks); assay type: in vivo; settings: therapeutic: Bufalin 0.5 mg/kg i.p. every other day from week 2; week 8
Protocol: Diastolic heart failure (HF) was induced in C57BL/6N mice via implantation of angiotensin II filled minipumps (see Example 3). In difference to Example 3, C57BL/6N mice were infused with 3 mg/kg/day angiotensin II by subcutaneously implanted minipumps for eight weeks.
Next, Bufalin or Lycorine (dissolved in DMSO) or the solvent DMSO alone (as control) were injected intraperitoneally (i.p) every other day until the endpoint, starting two weeks after start of angiotensin II-infusion (see FIG. 11).
Diastolic HF was induced in C57BL/6 mice and Bufalin or Lycorine were injected as indicated in Example 5. Eight weeks after the operation, cardiac function of the mice was assessed echocardiographically (n=5-12 per group) by treating the mice with said compounds (Bufalin: 0.5 mg/kg, Lycorine 4.5 mg/kg).
A decrease of the Myocardial Performance Index (MPI) (see FIG. 12B) as well as a reduction of the isovolumetric relaxation time (IVRT) (see FIG. 12C) and an increase in E to A peak ratio (E/A) (the ratio of the early (E) to late (A) ventricular filling velocities as a marker of the function of the left ventricle of the heart) (see FIG. 12D) indicate improvement of both global (MPI) and diastolic (IVRT and E/A) function of the heart, in particular for Bufalin.

miRNA expression of HCFs = assay: High-throughput miRNA sequencing in HCFs; assay type: cell-based, human; settings: 1 μM, 24 h, vs DMSO
Protocol: HCFs were treated with 1 μM Bufalin for 24 h as indicated, total RNA was isolated and subjected to high-throughput miRNA sequencing profiling via deep sequencing, DMSO refers as a control. To perform a high-throughput miRNA sequencing the Illumine® TruSeq® Small RNA technology is used to prepare various RNA species which is known to the person skilled in the art. In view of said technology, advantages of the natural structure common to most known microRNA molecules are taken. Most mature miRNAs have a 5′-phosphate and a 3′-hydroxyl group as a result of the cellular pathway used to create them. Because of this, the Illumina adapters which are used are directly and specifically ligated to miRNAs. Thus, libraries for subsequent cluster generation are prepared, using total RNA as input. Further, adapter ligation, reverse transcription, PCR amplification, and pooled gel purification to generate a library product is applied as it is known to the skilled person in the art. […] Data represent pooled triplicates from 3 independent experiments. Representative experiment shown; the same experiment was performed with all the anti-fibrotic natural substances identified (see FIG. 16).

Which results are given for `C[C@]12CC[C@H](O)C[C@H]1CC[C@@H]1[C@@H]2CC[C@]2(C)[C@@H](c3ccc(=O)oc3)CC[C@]12O` [Bufalin]?
E to A peak ratio [1]: increase; Myocardial Performance Index (MPI) [1]: decrease; isovolumetric relaxation time (IVRT) [1]: reduction; number of miRNAs downregulated in HCFs (miRNA expression of HCFs): 33; number of miRNAs upregulated in HCFs (miRNA expression of HCFs): 14

— patent US11185539B2 (priority 2017, dated 2021)
